Results taken from patent publication US10472341B2, “Bicyclic tetrahydrothiazepine derivatives useful for the treatment of neoplastic and/or infectious diseases” (APEIRON BIOLOGICS AG, priority 2015, dated 2019).

Legend:
[1] = system: NK cells & K562 leukemia cells; experiment: NK cells alone or in co-culture with K562 leukemia cells: IFN-gamma, TNF-alpha, granzyme, CD25+CD69+; type: cell-based, human
Protocol: Isolated PBMCs, NK cells or CD8 positive cells were plated in Xvivo medium at 1.5*10^5 cells per in 96 well culture plates in the presence of 0.3*10^4 tumor cells where indicated. Cytokine secretion was determined by ELISA, immune cell activation (using Beckman-Coulter Abs CD25-PC5, CD69-PC7), cell viability and numbers by flow cytometry (Beckman-Coulter FC500 or Gallios) using 7-AAD exclusion as criterion for living cells. One of the physiological functions of NK cells in anti-tumor immunity is the recognition and destruction of tumor cells that have a low expression of MHC-molecules, thus avoiding recognition by CD8 T cells. Downregulation of MHC molecules is often actively mediated by an infecting virus or occurs during development of malignant neoplasms. The […] leukemia cell line expresses only very low amounts of MHC-molecules and thus is often used as a model system to investigate anti-tumor NK cell reactivity. NK cells were isolated from PBMCs and were incubated with and without compounds, either alone or in co-culture with K562 leukemia cells.

K562 leukemia cells = experiment: Living tumor cells (K562) in the presence of NK cells; type: cell-based, human
Protocol: Isolated PBMCs, NK cells or CD8 positive cells were plated in Xvivo medium at 1.5*10^5 cells per in 96 well culture plates in the presence of 0.3*10^4 tumor cells where indicated. Cytokine secretion was determined by ELISA, immune cell activation (using Beckman-Coulter Abs CD25-PC5, CD69-PC7), cell viability and numbers by flow cytometry (Beckman-Coulter FC500 or Gallios) using 7-AAD exclusion as criterion for living cells. NK cells were isolated from PBMCs and were incubated with and without compounds, either alone or in co-culture with K562 leukemia cells.

CCCCNC(=O)c1ccc2c(c1)N(Cc1ccc(OC(F)(F)F)cc1)C(=O)[C@@H](N)CS2(=O)=O.Cl [Example 67, (3R)-3-amino-N-butyl-1,1,4-trioxo-5-{[4-(trifluoromethoxy)phenyl]methyl}-2,3,4,5-tetrahydro-1λ^6,5-benzothiazepine-7-carboxamide hydrochloride]
IFN-gamma [ng/ml] Avg ([1]; 0.03 μM, NK cells & K562): 7.47 ng/mL | TNF-alpha [ng/ml] avg ([1]; 0.03 μM, NK cells & K562): 0.21 ng/mL | IFN-gamma [ng/ml] Avg ([1]; 0.03 μM, NK cells only): below | TNF-alpha [ng/ml] avg ([1]; 0.03 μM, NK cells only): below | IFN-gamma [ng/ml] Avg ([1]; 0.1 μM, NK cells & K562): 10.14 ng/mL | TNF-alpha [ng/ml] avg ([1]; 0.1 μM, NK cells & K562): 0.26 ng/mL | IFN-gamma [ng/ml] Avg ([1]; 0.1 μM, NK cells only): below | TNF-alpha [ng/ml] avg ([1]; 0.1 μM, NK cells only): below | IFN-gamma [ng/ml] Avg ([1]; 0.3 μM, NK cells & K562): 11.24 ng/mL | TNF-alpha [ng/ml] avg ([1]; 0.3 μM, NK cells & K562): 0.33 ng/mL | IFN-gamma [ng/ml] Avg ([1]; 0.3 μM, NK cells only): below | TNF-alpha [ng/ml] avg ([1]; 0.3 μM, NK cells only): below | IFN-gamma [ng/ml] Avg ([1]; 1 μM, NK cells & K562): 16.40 ng/mL | TNF-alpha [ng/ml] avg ([1]; 1 μM, NK cells & K562): 0.57 ng/mL | IFN-gamma [ng/ml] Avg ([1]; 1 μM, NK cells only): below | TNF-alpha [ng/ml] avg ([1]; 1 μM, NK cells only): below | IFN-gamma [ng/ml] Avg ([1]; 3 μM, NK cells & K562): 17.80 ng/mL | TNF-alpha [ng/ml] avg ([1]; 3 μM, NK cells & K562): 0.58 ng/mL | IFN-gamma [ng/ml] Avg ([1]; 3 μM, NK cells only): below | TNF-alpha [ng/ml] avg ([1]; 3 μM, NK cells only): below | IFN-gamma [ng/ml] Avg ([1]; 10 μM, NK cells & K562): 22.65 ng/mL | TNF-alpha [ng/ml] avg ([1]; 10 μM, NK cells & K562): 0.80 ng/mL | IFN-gamma [ng/ml] Avg ([1]; 10 μM, NK cells only): below | TNF-alpha [ng/ml] avg ([1]; 10 μM, NK cells only): below | IFN-gamma [ng/ml] Avg ([1]; 30 μM, NK cells & K562): 19.98 ng/mL | TNF-alpha [ng/ml] avg ([1]; 30 μM, NK cells & K562): 0.79 ng/mL | IFN-gamma [ng/ml] Avg ([1]; 30 μM, NK cells only): below | TNF-alpha [ng/ml] avg ([1]; 30 μM, NK cells only): below | CD25+CD69+ ([1]; NK cells & K562, 0.03 μM): 6.90 % gated | Granzyme ([1]; NK cells & K562, 0.03 μM): 0.65 ng/mL | CD25+CD69+ ([1]; NK cells & K562, 0.1 μM): 8.44 % gated | Granzyme ([1]; NK cells & K562, 0.1 μM): 0.93 ng/mL | CD25+CD69+ ([1]; NK cells & K562, 0.3 μM): 9.68 % gated | Granzyme ([1]; NK cells & K562, 0.3 μM): 1.01 ng/mL | CD25+CD69+ ([1]; NK cells & K562, 1 μM): 18.80 % gated | Granzyme ([1]; NK cells & K562, 1 μM): 1.47 ng/mL | CD25+CD69+ ([1]; NK cells & K562, 3 μM): 21.66 % gated | Granzyme ([1]; NK cells & K562, 3 μM): 1.62 ng/mL | CD25+CD69+ ([1]; NK cells & K562, 10 μM): 31.98 % gated | Granzyme ([1]; NK cells & K562, 10 μM): 2.52 ng/mL | CD25+CD69+ ([1]; NK cells & K562, 30 μM): 35.89 % gated | Granzyme ([1]; NK cells & K562, 30 μM): 2.43 ng/mL | production of IFN-gamma and TNF-alpha ([1]; NK cells in co-culture with K562 leukemia cells): enhanced production of both cytokines specifically upon tumor cell contact | enhancement of IFN-gamma and TNF-alpha production ([1]; NK cells in the absence of tumor cells): such effect was not detected in the absence of tumor cells | CD25+CD69+ ([1]; NK cells only, 0.03 μM): 0.05 % gated | Granzyme ([1]; NK cells only, 0.03 μM): 0.08 ng/mL | CD25+CD69+ ([1]; NK cells only, 0.1 μM): 0.06 % gated | Granzyme ([1]; NK cells only, 0.1 μM): 0.09 ng/mL | CD25+CD69+ ([1]; NK cells only, 0.3 μM): 0.15 % gated | Granzyme ([1]; NK cells only, 0.3 μM): 0.08 ng/mL | CD25+CD69+ ([1]; NK cells only, 1 μM): 0.39 % gated | Granzyme ([1]; NK cells only, 1 μM): 0.06 ng/mL | CD25+CD69+ ([1]; NK cells only, 3 μM): 0.47 % gated | Granzyme ([1]; NK cells only, 3 μM): 0.12 ng/mL | CD25+CD69+ ([1]; NK cells only, 10 μM): 0.95 % gated | Granzyme ([1]; NK cells only, 10 μM): 0.15 ng/mL | CD25+CD69+ ([1]; NK cells only, 30 μM): 1.24 % gated | Granzyme ([1]; NK cells only, 30 μM): 0.25 ng/mL | Living tumor cells (K562 leukemia cells; K562 only, 0.3 μM): 22199.00 | Living tumor cells (K562 leukemia cells; K562 only, 3 μM): 20750.33 | Living tumor cells (K562 leukemia cells; K562 only, 30 μM): 22719.33 | Living tumor cells (K562 leukemia cells; NK cells & K562, 0.01 μM): 709.00 | Living tumor cells (K562 leukemia cells; NK cells & K562, 0.03 μM): 779.67 | Living tumor cells (K562 leukemia cells; NK cells & K562, 0.1 μM): 712.67 | Living tumor cells (K562 leukemia cells; NK cells & K562, 0.3 μM): 676.00 | Living tumor cells (K562 leukemia cells; NK cells & K562, 1 μM): 623.33 | Living tumor cells (K562 leukemia cells; NK cells & K562, 3 μM): 620.33 | Living tumor cells (K562 leukemia cells; NK cells & K562, 10 μM): 611.67 | Living tumor cells (K562 leukemia cells; NK cells & K562, 30 μM): 632.00
